From patent publication US6890936B2, “Muscarinic antagonists” (Schering Corporation, priority 2002, dated 2005) come the findings set out here.

Common to all, as to settings: membranes from stably transfected CHO cells, 3H-QNB 100-200 pM, 25° C., 90 minutes
Experiment [1] concerns the target T1, cloned human M1 muscarinic receptor (Homo sapiens, UniProt P11229).
T1 sequence (P11229 1-460): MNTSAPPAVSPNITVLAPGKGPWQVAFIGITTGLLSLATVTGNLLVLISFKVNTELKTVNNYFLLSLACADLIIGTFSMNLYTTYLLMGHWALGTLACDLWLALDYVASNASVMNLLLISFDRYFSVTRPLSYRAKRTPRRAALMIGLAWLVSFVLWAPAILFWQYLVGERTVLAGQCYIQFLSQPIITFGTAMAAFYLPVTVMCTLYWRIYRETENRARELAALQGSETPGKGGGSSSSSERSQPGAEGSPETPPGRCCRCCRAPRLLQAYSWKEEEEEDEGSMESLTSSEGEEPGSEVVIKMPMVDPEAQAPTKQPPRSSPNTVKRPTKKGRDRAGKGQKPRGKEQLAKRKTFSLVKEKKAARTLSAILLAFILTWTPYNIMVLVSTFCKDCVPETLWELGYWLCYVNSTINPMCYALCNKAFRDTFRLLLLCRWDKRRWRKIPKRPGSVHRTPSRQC
The experiment in a line: Muscarinic binding activity, 3H-QNB displacement, M1.

Experiment [2] has as its target T2, cloned human M5 muscarinic receptor (Homo sapiens, UniProt P08912).
T2 sequence (P08912 1-532): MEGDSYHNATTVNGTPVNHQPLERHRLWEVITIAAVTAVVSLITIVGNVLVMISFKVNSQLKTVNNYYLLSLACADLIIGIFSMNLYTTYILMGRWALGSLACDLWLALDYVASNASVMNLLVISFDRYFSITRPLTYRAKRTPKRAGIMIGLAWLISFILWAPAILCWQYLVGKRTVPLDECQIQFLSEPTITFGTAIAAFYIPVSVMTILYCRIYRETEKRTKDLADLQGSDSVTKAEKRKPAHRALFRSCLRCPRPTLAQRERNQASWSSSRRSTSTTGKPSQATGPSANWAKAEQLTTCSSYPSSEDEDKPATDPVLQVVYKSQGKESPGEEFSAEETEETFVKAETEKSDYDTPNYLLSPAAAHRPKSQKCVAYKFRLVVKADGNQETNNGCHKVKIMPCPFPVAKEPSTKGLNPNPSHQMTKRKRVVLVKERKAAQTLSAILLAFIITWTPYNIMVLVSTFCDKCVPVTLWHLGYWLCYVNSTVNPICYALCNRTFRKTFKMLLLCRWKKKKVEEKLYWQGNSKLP
The experiment in a line: Muscarinic binding activity, 3H-QNB displacement, M5.

Experiment [3] has as its target T3, cloned human M2 muscarinic receptor (Homo sapiens, UniProt P08172).
T3 sequence (P08172 1-466): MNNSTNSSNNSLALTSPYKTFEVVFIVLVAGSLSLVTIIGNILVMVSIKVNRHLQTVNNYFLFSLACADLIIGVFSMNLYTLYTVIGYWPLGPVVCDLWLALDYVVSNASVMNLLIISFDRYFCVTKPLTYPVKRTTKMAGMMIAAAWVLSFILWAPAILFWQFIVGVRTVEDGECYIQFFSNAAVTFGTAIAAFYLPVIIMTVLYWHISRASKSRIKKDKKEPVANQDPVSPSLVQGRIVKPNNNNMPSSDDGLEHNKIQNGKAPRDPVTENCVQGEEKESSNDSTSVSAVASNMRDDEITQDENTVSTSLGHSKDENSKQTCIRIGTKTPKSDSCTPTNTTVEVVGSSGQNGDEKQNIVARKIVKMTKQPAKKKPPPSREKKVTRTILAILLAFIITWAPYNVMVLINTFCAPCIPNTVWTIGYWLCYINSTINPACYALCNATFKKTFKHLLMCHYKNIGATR
The experiment can be described thus: Muscarinic binding activity, 3H-QNB displacement, M2.

The target in experiment [4] is cloned human M3 muscarinic receptor (Homo sapiens, UniProt P20309). The experiment can be described thus: Muscarinic binding activity, 3H-QNB displacement, M3.
Experiment [5] deals with T4, cloned human M4 muscarinic receptor (Homo sapiens, UniProt P08173).
T4 sequence (P08173 1-479): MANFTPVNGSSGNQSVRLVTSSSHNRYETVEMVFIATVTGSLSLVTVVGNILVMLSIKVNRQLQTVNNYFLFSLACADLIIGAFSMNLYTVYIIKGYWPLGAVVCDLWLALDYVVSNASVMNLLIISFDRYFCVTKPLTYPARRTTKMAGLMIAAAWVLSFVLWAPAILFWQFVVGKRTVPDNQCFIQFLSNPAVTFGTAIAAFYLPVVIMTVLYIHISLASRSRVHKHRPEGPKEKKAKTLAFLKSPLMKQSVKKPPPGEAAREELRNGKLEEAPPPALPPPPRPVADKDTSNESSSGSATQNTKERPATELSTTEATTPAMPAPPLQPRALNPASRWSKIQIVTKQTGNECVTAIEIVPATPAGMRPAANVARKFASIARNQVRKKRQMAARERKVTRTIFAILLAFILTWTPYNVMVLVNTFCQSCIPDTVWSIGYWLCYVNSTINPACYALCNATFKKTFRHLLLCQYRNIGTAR
The experiment can be described thus: Muscarinic binding activity, 3H-QNB displacement, M4.

Bounds are passed on as bounds.

Chain of cloned human M3 muscarinic receptor (P20309 whole entry): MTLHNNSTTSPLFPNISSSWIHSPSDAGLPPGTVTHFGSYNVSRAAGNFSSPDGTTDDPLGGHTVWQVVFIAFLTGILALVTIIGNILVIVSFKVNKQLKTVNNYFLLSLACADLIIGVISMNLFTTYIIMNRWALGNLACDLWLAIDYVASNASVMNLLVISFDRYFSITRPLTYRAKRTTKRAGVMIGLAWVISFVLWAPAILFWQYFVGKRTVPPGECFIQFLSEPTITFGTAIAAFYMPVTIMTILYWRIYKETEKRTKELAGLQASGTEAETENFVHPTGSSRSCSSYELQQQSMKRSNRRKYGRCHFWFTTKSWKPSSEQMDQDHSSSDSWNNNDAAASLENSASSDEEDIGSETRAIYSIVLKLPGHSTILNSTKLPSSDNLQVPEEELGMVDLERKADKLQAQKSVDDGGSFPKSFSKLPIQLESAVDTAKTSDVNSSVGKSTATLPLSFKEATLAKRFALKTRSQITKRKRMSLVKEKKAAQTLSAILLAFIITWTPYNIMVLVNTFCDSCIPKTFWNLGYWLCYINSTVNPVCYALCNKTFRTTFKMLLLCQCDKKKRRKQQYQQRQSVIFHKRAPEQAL

As usually defined, the Ki is a measure of affinity in units of concentration, obtained from inhibition or displacement. Turning to `Cc1cccc(C(=O)N2CCC(N3CCC4(CC3)C(c3ccc(OC(C)C)cc3)C4(Cl)Cl)CC2)c1Cl` (stereo not shown) [Compound 1], the inhibitory constant (Ki) is > 990 nM in experiment [1]; 891 nM in experiment [2]; > 1400 nM in experiment [3]; > 1000 nM in experiment [4]; > 1000 nM in experiment [5].
Regarding `Cc1c(Cl)cccc1C(=O)N1CCC(N2CCC3(CC2)C(c2ccc(OC(C)C)cc2)C3(Cl)Cl)CC1` (stereo not shown) [Compound 2], the inhibition constant Ki is 982 nM in experiment [1] and > 1400 nM in experiment [3].
With `CC(C)Oc1ccc(C2C(Cl)(Cl)C23CCN(C2CCN(C(=O)c4cccc(Cl)c4Cl)CC2)CC3)cc1` (stereo not shown) [Compound 3], the Ki in experiment [1] was > 996 nM; in experiment [2], > 1500 nM; in experiment [3] it was > 1440 nM; in experiment [4] it was > 1000 nM; in experiment [5], > 1000 nM.
Consider `Cc1cccc(C(=O)N2CCC(N3CCC4(CC3)C(c3ccc(OC(C)C)cc3)C4(Cl)Cl)CC2)c1N` (stereo not shown) [Compound 4], for which the Ki is > 990 nM in experiment [1]; 96 nM in experiment [2]; 77 nM in experiment [3]; > 1000 nM in experiment [4]; > 1000 nM in experiment [5].
`CC(C)Oc1ccc(C2C(Cl)(Cl)C23CCN(C2CCN(C(=O)c4cccc(Cl)c4N)CC2)CC3)cc1` (stereo not shown) [Compound 5]: the Ki in experiment [1] was > 990 nM; in experiment [2], 786 nM; in experiment [3] it was 1390 nM; in experiment [4], > 1000 nM; in experiment [5], > 1000 nM.
As to `CC(C)Oc1ccc(C2C(Cl)(Cl)C23CCN(C2CCN(C(=O)c4cccc(F)c4N)CC2)CC3)cc1` (stereo not shown) [Compound 6], the inhibitory constant (Ki) in experiment [1] is > 990 nM; in experiment [2], 42 nM; in experiment [3] it was 1200 nM; in experiment [4], > 1000 nM; in experiment [5], > 1000 nM.
On to `Cc1c(Cl)cccc1C(=O)N1CCC(N2CCC3(CC2)CC3c2ccc(OC(C)C)cc2)CC1` (stereo not shown) [Compound 7], for which the Ki in experiment [1] is > 900 nM; in experiment [2], > 1500 nM; in experiment [3] it was > 1380 nM; in experiment [4], > 1000 nM; in experiment [5], > 1000 nM.
With `CC(C)Oc1ccc(C2CC23CCN(C2CCN(C(=O)c4cccc(Cl)c4Cl)CC2)CC3)cc1` (stereo not shown) [Compound 8], the Ki in experiment [1] was 819 nM; in experiment [2], > 1500 nM; in experiment [3], 607 nM; in experiment [4], > 1000 nM; in experiment [5], > 1000 nM.
Take `CC(C)Oc1ccc(C2CC23CCN(C2CCN(C(=O)c4cccc(Cl)c4N)CC2)CC3)cc1` (stereo not shown) [Compound 9]: the inhibitory constant (Ki) in experiment [1] was > 900 nM; in experiment [2], > 1500 nM; in experiment [3], 490 nM; in experiment [4], > 1000 nM; in experiment [5], > 1000 nM.
`CC(C)Oc1ccc(C2(C)CC23CCN(C2CCN(C(=O)c4cccc(Cl)c4Cl)CC2)CC3)cc1` (stereo not shown) [Compound 10]: the Ki was 1010 nM in experiment [1]; 995 nM in experiment [2]; 149 nM in experiment [3]; > 1200 nM in experiment [4]; 261 nM in experiment [5].
As for `CC(C)Oc1ccc(C2(C)CC23CCN(C2CCN(C(=O)c4cccc(Cl)c4N)CC2)CC3)cc1` (stereo not shown) [Compound 11], the inhibition constant (Ki) was 600 nM in experiment [1]; 619 nM in experiment [2]; 49 nM in experiment [3]; 691 nM in experiment [4]; 151 nM in experiment [5].
The like results for `Cc1c(Cl)cccc1C(=O)N1CCC(N2CCC3(CC2)CC3(C)c2ccc(OC(C)C)cc2)CC1` (stereo not shown) [Compound 12] were, in that order, 744 nM, 1210 nM, 113 nM, > 1200 nM and 272 nM.
Take `CC(C)Oc1ccc(C2C(Cl)(Cl)C23CCN(C2CCN(C(=O)c4ccc(F)c5ccccc45)CC2)CC3)cc1` (stereo not shown) [Compound 13]: the inhibition constant (Ki) in experiment [1] was > 1200 nM; in experiment [3], > 1900 nM.
The matching figures for `CC(C)Oc1ccc(C2C(Cl)(Cl)C23CCN(C2CCN(C(=O)c4cccc5c(Br)cccc45)CC2)CC3)cc1` (stereo not shown) [Compound 14]: > 1200 nM and > 1900 nM.
Consider `CCCS(=O)(=O)N1CCC(N2CCC3(CC2)C(c2ccc(OC(C)C)cc2)C3(Cl)Cl)CC1` (stereo not shown) [Compound 15], for which the inhibition constant Ki was > 1200 nM in experiment [1] and 481 nM in experiment [3].
The like results for `CC(C)Oc1ccc(C2C(Cl)(Cl)C23CCN(C2CCN(S(=O)(=O)c4cccc5ccccc45)CC2)CC3)cc1` (stereo not shown) [Compound 16] were, in that order, > 1200 nM and 1840 nM.
Consider `Cc1cccc(C)c1C(=O)N1CCC(N2CCC3(CC2)C(c2ccc(OC(C)C)cc2)C3(Cl)Cl)CC1` (stereo not shown) [Compound 17], for which the Ki is > 1200 nM in experiment [1] and > 1900 nM in experiment [3].
